The target in one assay is Acetylcholinesterase (Torpedo californica, UniProt P04058). As to the kind of experiment: Inhibition of AChE.
The target in another assay is Butyrylcholinesterase (Equus caballus, UniProt Q9N1N9). As to the kind of experiment: Inhibition of BuChE in horse serum.
Assay [1] can be described thus: Selectivity for Torpedo californica AChE over horse BuChE.

pIC50: −log10 of the molar value.

Chain of Acetylcholinesterase (P04058 whole entry): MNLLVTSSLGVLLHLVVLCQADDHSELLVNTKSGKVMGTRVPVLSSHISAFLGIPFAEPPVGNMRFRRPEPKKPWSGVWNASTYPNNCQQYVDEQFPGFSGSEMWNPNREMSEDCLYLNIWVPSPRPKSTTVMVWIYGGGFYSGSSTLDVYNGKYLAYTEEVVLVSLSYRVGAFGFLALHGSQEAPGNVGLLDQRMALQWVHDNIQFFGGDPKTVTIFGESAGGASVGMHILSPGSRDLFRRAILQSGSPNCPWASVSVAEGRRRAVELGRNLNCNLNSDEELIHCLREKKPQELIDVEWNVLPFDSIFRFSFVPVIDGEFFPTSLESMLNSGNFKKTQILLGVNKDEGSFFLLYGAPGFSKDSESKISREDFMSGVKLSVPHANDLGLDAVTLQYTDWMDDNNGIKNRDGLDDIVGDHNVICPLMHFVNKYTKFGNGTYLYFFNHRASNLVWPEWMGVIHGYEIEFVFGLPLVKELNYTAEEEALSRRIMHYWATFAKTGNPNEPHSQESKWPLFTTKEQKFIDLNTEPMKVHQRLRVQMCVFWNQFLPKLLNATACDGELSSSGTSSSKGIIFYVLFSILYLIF
Chain of Butyrylcholinesterase (Q9N1N9 whole entry): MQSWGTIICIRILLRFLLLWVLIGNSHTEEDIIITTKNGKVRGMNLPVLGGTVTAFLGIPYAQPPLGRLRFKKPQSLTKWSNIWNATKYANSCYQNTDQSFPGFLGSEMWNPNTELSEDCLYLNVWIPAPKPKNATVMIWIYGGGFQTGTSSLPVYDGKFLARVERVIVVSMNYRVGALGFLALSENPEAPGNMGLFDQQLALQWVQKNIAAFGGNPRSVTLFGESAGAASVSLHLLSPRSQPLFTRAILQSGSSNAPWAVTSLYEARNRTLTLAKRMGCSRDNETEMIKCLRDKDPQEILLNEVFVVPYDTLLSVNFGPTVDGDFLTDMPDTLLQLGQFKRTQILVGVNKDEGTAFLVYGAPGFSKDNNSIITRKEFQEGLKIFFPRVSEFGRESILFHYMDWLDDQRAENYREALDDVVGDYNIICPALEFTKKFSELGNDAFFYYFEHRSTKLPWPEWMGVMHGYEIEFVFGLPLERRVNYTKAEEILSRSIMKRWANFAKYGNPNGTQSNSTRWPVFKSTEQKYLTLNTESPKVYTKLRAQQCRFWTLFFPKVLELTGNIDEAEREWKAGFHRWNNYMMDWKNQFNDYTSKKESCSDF

`COC(=O)C(Cc1c[nH]c2ccccc12)NC(=O)COc1ccc(C=O)cc1` (stereo not drawn): the pIC50 is 6.55 against Acetylcholinesterase and 4.47 against Butyrylcholinesterase. For the same compound, the Ratio IC50 in assay [1] stood at 121.
`COC(=O)CCC(NC(=O)COc1ccc(C=O)cc1)C(=O)OC` (stereo not drawn) had a pIC50 on Acetylcholinesterase of less than 3.70.
Same read-out and setting: the value for `COC(=O)C(Cc1ccccc1)NC(=O)COc1ccc(C=O)cc1` (stereo not drawn) was 5.30; that for `COC(=O)CNC(=O)COc1ccc(C=O)cc1` was 4.00; that for `COC(=O)C(C)NC(=O)COc1ccc(C=O)cc1` (stereo not drawn) was 6.72.
Same read-out and setting: the value for `O=Cc1ccc(O)cc1` [4-HYDROXYBENZALDEHYDE] was less than 3.00.

These data come from ChEMBL document CHEMBL1147837, “Methyl 2-(2-(4-formylphenoxy)acetamido)-2-substituted acetate derivatives: a new class of acetylcholinesterase inhibitors” (Bioorg Med Chem Lett, 2007).
